Assay results: the supplement of paper PMC10307832

Tests used:
Assay in all cases: relative viability (nuclei count vs DMSO), 5 days (fraction); higher = more cells survive
Vismodegib + Lapatinib = compound: CS(=O)(=O)c1ccc(C(=O)Nc2ccc(Cl)c(-c3ccccn3)c2)c(Cl)c1 [Vismodegib] + CS(=O)(=O)CCNCc1ccc(-c2ccc3ncnc(Nc4ccc(OCc5cccc(F)c5)c(Cl)c4)c3c2)o1 [Lapatinib] (partner 2 µM)
In short: (§1)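 Relative viability equals treated-well nuclei counts divided by vehicle-well nuclei counts. Counts came from 4× images of lung cancer cell lines grown in 1536-well plates for 5 days after pin-tool dosing on the day after seeding. Dosing used one drug alone or a fixed anchor-drug dose plus five library-drug doses (not always all listed) in √10 steps, and values are medians of duplicate plates.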

Vismodegib + Olaparib = compound: CS(=O)(=O)c1ccc(C(=O)Nc2ccc(Cl)c(-c3ccccn3)c2)c(Cl)c1 [Vismodegib] + O=C(c1cc(Cc2n[nH]c(=O)c3ccccc23)ccc1F)N1CCN(C(=O)C2CC2)CC1 [Olaparib] (partner 8 µM)
In short: as §1

VE-821 + Palbociclib = compound: CS(=O)(=O)c1ccc(-c2cnc(N)c(C(=O)Nc3ccccc3)n2)cc1 [VE-821] + CC(=O)c1c(C)c2cnc(Nc3ccc(N4CCNCC4)cn3)nc2n(C2CCCC2)c1=O [Palbociclib] (partner 0.5 µM)
In short: as §1

VE-821 + Pictilisib = compound: CS(=O)(=O)c1ccc(-c2cnc(N)c(C(=O)Nc3ccccc3)n2)cc1 [VE-821] + CS(=O)(=O)N1CCN(Cc2cc3nc(-c4cccc5[nH]ncc45)nc(N4CCOCC4)c3s2)CC1 [Pictilisib] (partner 1 µM)
In short: as §1

| Cell Line | relative viability (Vismodegib + Lapatinib; first compound 0.08 µM) | relative viability (Vismodegib + Lapatinib; first compound 0.253 µM) | relative viability (Vismodegib + Lapatinib; first compound 0.8 µM) | relative viability (Vismodegib + Lapatinib; first compound 2.53 µM) | relative viability (Vismodegib + Lapatinib; first compound 8 µM) | relative viability (Vismodegib + Olaparib; first compound 0.08 µM) | relative viability (Vismodegib + Olaparib; first compound 0.253 µM) | relative viability (Vismodegib + Olaparib; first compound 0.8 µM) | relative viability (Vismodegib + Olaparib; first compound 2.53 µM) | relative viability (Vismodegib + Olaparib; first compound 8 µM) | relative viability (VE-821 + Palbociclib; first compound 0.08 µM) | relative viability (VE-821 + Palbociclib; first compound 0.253 µM) | relative viability (VE-821 + Palbociclib; first compound 0.8 µM) | relative viability (VE-821 + Palbociclib; first compound 2.53 µM) | relative viability (VE-821 + Palbociclib; first compound 8 µM) | relative viability (VE-821 + Pictilisib; first compound 0.08 µM) | relative viability (VE-821 + Pictilisib; first compound 0.253 µM) | relative viability (VE-821 + Pictilisib; first compound 0.8 µM) | relative viability (VE-821 + Pictilisib; first compound 2.53 µM) | relative viability (VE-821 + Pictilisib; first compound 8 µM) |
| --- | --- | --- | --- | --- | --- | --- | --- | --- | --- | --- | --- | --- | --- | --- | --- | --- | --- | --- | --- | --- |
| H3255 | 0.244 | 0.24 | 0.239 | 0.268 | 0.239 | 0.586 | 0.554 | 0.516 | 0.54 | 0.517 | 0.288 | 0.332 | 0.332 | 0.326 | 0.319 | 0.583 | 0.553 | 0.549 | 0.454 | 0.568 |
| NCI-H1915 | 0.936 | 0.975 | 0.995 | 0.901 | 0.978 | 0.276 | 0.256 | 0.244 | 0.273 | 0.232 | 0.558 | 0.532 | 0.54 | 0.547 | 0.452 | 1.06 | 0.785 | 0.982 | 1.07 | 0.652 |
| NCI-H358 | 0.471 | 0.505 | 0.422 | 0.518 | 0.461 | 0.564 | 0.597 | 0.525 | 0.521 | 0.667 | 0.13 | 0.14 | 0.134 | 0.135 | 0.133 | 0.383 | 0.273 | 0.408 | 0.359 | 0.38 |
| NCI-H596 | 0.983 | 1.07 | 0.941 | 1.1 | 1.09 | 0.749 | 0.488 | 0.653 | 0.706 | 0.844 | – | – | – | – | – | 0.416 | 0.4 | 0.431 | 0.431 | 0.385 |
| NCI-H1648 | – | – | – | – | – | 0.781 | 0.767 | 0.46 | 0.645 | 0.872 | 0.269 | – | 0.252 | 0.265 | 0.349 | – | – | – | – | – |
| A549 | 1.02 | 0.972 | 0.971 | 0.979 | 0.908 | 0.247 | 0.358 | 0.31 | 0.352 | 0.194 | – | – | – | – | – | 0.616 | 0.481 | 0.531 | 0.468 | 0.229 |
| NCI-H1563 | 0.849 | 0.878 | 0.901 | 0.892 | 0.966 | – | – | – | – | – | – | – | – | – | – | 0.581 | 0.613 | 0.648 | 0.663 | 0.731 |
| IA-LM | 0.807 | 0.639 | 0.802 | 0.691 | 0.911 | 0.841 | 0.853 | 0.892 | 0.773 | 0.941 | – | – | – | – | – | 0.412 | 0.341 | 0.443 | 0.749 | 0.551 |
| NCI-H522 | – | – | – | – | – | 0.786 | 0.591 | 0.612 | 0.567 | 0.565 | 1.06 | 1.15 | 0.754 | 0.932 | 0.999 | – | – | – | – | – |
| EBC-1 | 0.215 | 0.189 | 0.205 | 0.195 | 0.215 | 0.662 | 0.674 | 0.751 | 0.69 | 0.74 | – | – | – | – | – | 0.295 | 0.353 | 0.382 | 0.433 | 0.312 |
| Calu-6 | 1.13 | 1.08 | 1.06 | 1.09 | 1.03 | 0.589 | 0.558 | 0.562 | 0.434 | 0.587 | – | – | – | – | – | 1.1 | 0.973 | 0.918 | 0.778 | 0.523 |
